Reference: paper PMC9663686, “Proline, hydroxyproline, and pyrrolidone carboxylic acid derivatives as highly efficient but reversible transdermal permeation enhancers” (Scientific Reports, 2022)
Marks after values point to notes of the source that are not given here.

Tests used:
human skin [1] = experiment: Electrical impedance of human skin in vitro, reversibility; conditions: for impedance 1 h after the sample had been removed / impedance 4 h after the sample had been removed / impedance 8 h after the sample had been removed / impedance 12 h after the sample had been removed / impedance 24 h after the sample had been removed: 24-h application of 1% enhancer (1% Azone, 5% SDS) in 60% PG; for impedance 1 h after the sample had been removed / impedance 4 h after the sample had been removed / impedance 8 h after the sample had been removed / impedance 12 h after the sample had been removed / impedance 24 h after the sample had been removed / impedance before sample application (baseline): mean ± SEM; for recovery of skin impedance after sample removal: after 24-h application, followed 24 h after removal
Source text: (§1) We further investigated the direct effects of the selected enhancers on the skin barrier assessed by TEWL and the electrical impedance of human skin in vitro. TEWL is a method commonly used in dermatology[38] to study, for example, the irritant potential of chemicals, skin barrier recovery, or effect of topical formulations, and permeation enhancers[17],[21],[41]–[44]. Electrical impedance measures the opposition of the skin to alternating electrical current and is inversely proportional to the flux of ions. Thus, increased TEWL or decreased impedance indicates a barrier impairment[45],[46]. Electrical impedance or conductance measurements have been used to screen new enhancers or assess the irritation potential of compounds[13],[15],[17],[21],[32],[44],[47]–[50]. Both TEWL and impedance can distinguish between reversible and irreversible effects of enhancers on skin permeability[17],[21],[40],[44],[51].
(§2) Human skin was mounted in Franz diffusion cells in the same way as for the permeation studies. After 1-h equilibration, basal TEWL and impedance values were recorded. Then, 1% enhancer in 60% PG, 60% PG as a negative control, 1% Azone in 60% PG, or 5% SDS in 60% PG as positive (irreversible) controls was applied on the skin (100 µl/cm^2) for 24 h. The residual sample was washed with PBS and gently blotted dry. At 1, 4, 8, 12, and 24 h after sample removal, TEWL, and impedance values were recorded. TEWL was measured using AquaFlux AF 200 (Biox Systems Ltd, London, UK), employing the condenser-chamber measurement method at 26 ± 1.0 °C and 43 ± 3% relative air humidity. Electrical impedance was measured by LCR meter 4080 (Conrad electronic, Hirschau, Germany, measuring range 20 Ω–10 MΩ, error at kΩ values < 0.5%) operated in parallel mode with an alternating frequency of 120 Hz, which was also used in our previous work[21],[44].
(§3) Samples were removed from the skin after 24 h, and TEWL and impedance values were recorded in predetermined time intervals (1, 4, 8, 12, and 24 h after sample removal). Data are presented as the means ± SEM; n ≥ 3. * statistically significant difference compared to the baseline value before the sample application at p < 0.05. ^+ statistically significant compared to the value 1 h after the sample removal at p < 0.05.^ ≠ statistically significant compared to the control (60% PG without enhancer) at the same time point, at p < 0.05.

human skin [2] = experiment: Transepidermal water loss (TEWL) of human skin in vitro, reversibility; conditions: for TEWL 1 h after the sample had been removed / TEWL 4 h after the sample had been removed / TEWL 8 h after the sample had been removed / TEWL 12 h after the sample had been removed / TEWL 24 h after the sample had been removed: 24-h application of 1% enhancer (1% Azone, 5% SDS) in 60% PG; for TEWL 1 h after the sample had been removed / TEWL 4 h after the sample had been removed / TEWL 8 h after the sample had been removed / TEWL 12 h after the sample had been removed / TEWL 24 h after the sample had been removed / TEWL before sample application (baseline): mean ± SEM; for reversibility of TEWL increase: after 24-h application, followed 24 h after removal
Source text: as §1, §2, §3

human skin [3] = experiment: Diclofenac permeation through human skin in Franz diffusion cells with co-applied enhancer; type: in vitro ADME; conditions: 1% enhancer co-applied with 3% DC in 60% PG; for CDERMIS, diclofenac concentration in dermis / CEPIDERMIS, diclofenac concentration in epidermis: after 48 h permeation, mean ± SEM; for ER, enhancement ratio of diclofenac flux: human skin in vitro
Procedure: (§4) Donor samples for reversibility and infrared studies contained 1% enhancer in 60% PG. All samples were thoroughly mixed, incubated at 32 °C for 24 h, and, if needed, carefully resuspended before applying on the skin. The effects of the studied enhancers on the solubility of model drugs were assessed as described previously.
(§5) The permeation-enhancing potencies of the prepared compounds were evaluated on human skin in Franz diffusion cells. Human skin was slowly thawed, cut into 2 × 2 cm pieces, fixed in Teflon holders with 1-cm^2 circular permeation areas, and mounted into Franz cells epidermal side up. The acceptor compartment (15.9 ± 0.1 ml) was filled with phosphate-buffered saline at pH 7.4 with 0.005% gentamicin (PBS) and stirred at 32 °C throughout the experiment. The skin integrity was checked by electrical impedance (any skin sample with the impedance < 10 kΩ was excluded). Then, 100 µl of a donor sample (infinite dose) was applied to the skin and covered with a glass slide. Acceptor phase samples (300 µl) were collected at predetermined time intervals for 48 h, to reach steady-state and were replaced by the same volume of fresh PBS. […] The drug concentrations were measured by HPLC (see supplementary data).
(§6) The flux of the model drug through the skin Jss (µg/cm^2/h) was calculated from the linear region of this plot. The enhancement ratio (ER) was calculated as the ratio of flux with and without an enhancer.
(§7) After the permeation experiment, the cells were dismounted, the skin was carefully washed with PBS, and the permeation area of the skin (1 cm^2) was punched off. After heating the skin fragments to 80 °C for 1 min, the epidermis (E) was peeled off the dermis (D), individually weighed and extracted by 1 and 2 ml, respectively, of an extraction solvent (identical to the mobile phase for the drug HPLC analysis, see supplementary data) for 24 h. The drug concentration was measured by HPLC (see supplementary data).

human skin [4] = experiment: Theophylline permeation through human skin in Franz diffusion cells with co-applied enhancer; type: in vitro ADME; conditions: for CDERMIS, theophylline concentration in dermis / CEPIDERMIS, theophylline concentration in epidermis / ER, enhancement ratio of theophylline flux (fold increase in flux over control): 1% enhancer co-applied with 5% TH in 60% PG; for CDERMIS, theophylline concentration in dermis / CEPIDERMIS, theophylline concentration in epidermis: after 48 h permeation, mean ± SEM; for ER, enhancement ratio of theophylline flux (fold increase in flux over control): human skin in vitro
Procedure: The prepared enhancers were applied at 1% in 60% aqueous propylene glycol (PG) to human skin in vitro; 60% PG was used as a negative control. PG was selected for its synergy with amphiphilic enhancers. Each model drug was co-applied with the enhancer at infinite dose.
as §4, §5, §6, §7

| SMILES | CDERMIS, diclofenac concentration in dermis (human skin [3]) [µg/mg] | CEPIDERMIS, diclofenac concentration in epidermis (human skin [3]) [µg/mg] | ER, enhancement ratio of diclofenac flux (human skin [3]) | CDERMIS, theophylline concentration in dermis (human skin [4]) [µg/mg] | CEPIDERMIS, theophylline concentration in epidermis (human skin [4]) [µg/mg] | ER, enhancement ratio of theophylline flux (fold increase in flux over control) (human skin [4]) | other results |
| --- | --- | --- | --- | --- | --- | --- | --- |
| CCCCCCCCCCCCN1CCCCCC1=O [Azone, N-dodecylazepan-2-one, reference compound] | – | – | – | – | – | – | impedance 1 h after the sample had been removed (human skin [1]): 2.6 ± 0.4* kΩ×cm^2; impedance 4 h after the sample had been removed (human skin [1]): 7.8 ± 0.4*^≠ kΩ×cm^2; impedance 8 h after the sample had been removed (human skin [1]): 11.2 ± 0.2*^≠+ kΩ×cm^2; impedance 12 h after the sample had been removed (human skin [1]): 12.2 ± 0.4*^≠+ kΩ×cm^2; impedance 24 h after the sample had been removed (human skin [1]): 12.4 ± 0.8*^≠+ kΩ×cm^2; recovery of skin impedance after sample removal (human skin [1]): lack of TEWL and impedance reversibility; impedance before sample application (baseline) (human skin [1]): 25.1 ± 2.0 kΩ×cm^2; TEWL 1 h after the sample had been removed (human skin [2]): 67.7 ± 1.3*^≠ g/m^2/h; TEWL 4 h after the sample had been removed (human skin [2]): 60.7 ± 1.7*^≠ g/m^2/h; TEWL 8 h after the sample had been removed (human skin [2]): 51.9 ± 1.6*^≠+ g/m^2/h; TEWL 12 h after the sample had been removed (human skin [2]): 48.8 ± 2.3*^≠+ g/m^2/h; TEWL 24 h after the sample had been removed (human skin [2]): 48.3 ± 1.4*^≠+ g/m^2/h; reversibility of TEWL increase (human skin [2]): lack of TEWL and impedance reversibility; TEWL before sample application (baseline) (human skin [2]): 28.2 ± 3.6 g/m^2/h |
| CCCCCCCCCCCCOC(=O)C1CC(O)CN1C(C)=O (centres unmarked) [Hyp2] | 0.90 ± 0.08 | 9.22 ± 0.32 | 3 | 0.20 ± 0.03 | 2.87 ± 0.45 | 10 | – |
| CCCCCCCCCCCCOC(=O)C1CC(O)CN1C(=O)CC (centres unmarked) [Hyp3] | 0.97 ± 0.07 | 9.18 ± 0.62 | 4 | 0.25 ± 0.07 | 3.64 ± 0.85 | – | ER of epidermal TH concentration (human skin [4]; 1% enhancer with 5% TH in 60% PG, over control): 1.9 |
| CCCCCCCCCCCCOC(=O)C1CC(O)CN1C(=O)CCC (centres unmarked) [Hyp4] | 1.01 ± 0.05 | 8.99 ± 1.23 | 4 | 0.39 ± 0.07 | 1.96 ± 0.56 | 16 | – |
| CCCCCCCCCCCCOC(=O)C1CC(O)CN1C(=O)CCCC (centres unmarked) [Hyp5] | 1.02 ± 0.11 | 9.84 ± 1.22 | 5 | 0.23 ± 0.03 | 1.45 ± 0.41 | ~19 | – |
| CCCCCCCCCCCCOC(=O)C1CCC(=O)N1C(C)=O (centres unmarked) [PCA2] | – | – | – | 0.22 ± 0.03 | 2.33 ± 0.26 | 12 | – |
| CCCCCCCCCCCCOC(=O)C1CCC(=O)N1C(=O)CC (centres unmarked) [PCA3] | – | – | – | 0.28 ± 0.04 | 2.99 ± 0.37 | 9 | – |
| CCCCCCCCCCCCOC(=O)C1CCC(=O)N1C(=O)CCC (centres unmarked) [PCA4] | – | – | – | 0.30 ± 0.14 | 2.53 ± 0.23 | 5 | – |
| CCCCCCCCCCCCOC(=O)C1CCC(=O)N1C(=O)CCCC (centres unmarked) [PCA5] | – | – | – | 0.23 ± 0.07 | 2.14 ± 0.44 | 5 | – |
| CCCCCCCCCCCCOC(=O)C1CCCN1C(=O)CCCC (centres unmarked) [Pro5] | 1.30 ± 0.25 | 8.51 ± 1.39 | – | 0.26 ± 0.02 | 0.83 ± 0.12 | 24 | – |
| CCCCCCCCCCCCOC(=O)C1CCCN1C(=O)CCCCC (centres unmarked) [Pro6] | 1.44 ± 0.31 | 10.26 ± 0.38 | – | 0.22 ± 0.03 | 1.14 ± 0.19 | 16 | – |
| CCCCCCCCCCCCOC(=O)C1CCCN1C(=O)CCCCCC (centres unmarked) [Pro7] | 1.30 ± 0.75 | 8.63 ± 3.11 | 5 | 0.26 ± 0.04 | 0.95 ± 0.09 | 15 | – |
| CCCCCCCCCCCCOS(=O)(=O)[O-].[Na+] [SDS, sodium dodecyl sulfate, reference compound] | – | – | – | – | – | – | impedance 1 h after the sample had been removed (human skin [1]): 1.9 ± 0.2* kΩ×cm^2; impedance 4 h after the sample had been removed (human skin [1]): 3.8 ± 0.2*^≠ kΩ×cm^2; impedance 8 h after the sample had been removed (human skin [1]): 5.0 ± 0.3*^≠ kΩ×cm^2; impedance 12 h after the sample had been removed (human skin [1]): 5.6 ± 0.3*^≠ kΩ×cm^2; impedance 24 h after the sample had been removed (human skin [1]): 6.4 ± 0.3*^≠ kΩ×cm^2; recovery of skin impedance after sample removal (human skin [1]): lack of TEWL and impedance reversibility; impedance before sample application (baseline) (human skin [1]): 26.7 ± 0.7 kΩ×cm^2; TEWL 1 h after the sample had been removed (human skin [2]): 47.3 ± 2.2*^≠ g/m^2/h; TEWL 4 h after the sample had been removed (human skin [2]): 45.8 ± 4.4* g/m^2/h; TEWL 8 h after the sample had been removed (human skin [2]): 38.7 ± 3.1* g/m^2/h; TEWL 12 h after the sample had been removed (human skin [2]): 38.2 ± 2.6* g/m^2/h; TEWL 24 h after the sample had been removed (human skin [2]): 38.0 ± 2.3* g/m^2/h; reversibility of TEWL increase (human skin [2]): lack of TEWL and impedance reversibility; TEWL before sample application (baseline) (human skin [2]): 26.1 ± 2.9 g/m^2/h |
